Experimental data reported in publication PMC12345137 (mBio, 2025).

Tests used:
S. epidermidis agr-III = S. epidermidis agr-III (Staphylococcus epidermidis, UniProt Q8VSX2); assay: cell-based; type: cell-based; conditions: fluorescent reporter strain; peptides tested at 1000, 50, 2.5, 0.125 nM or in dose-response
Description: (§1) Peptides were evaluated for the ability to interfere with agr-mediated quorum sensing in S. aureus (AH1677, AH430, AH1747, and AH1872 for agr-I–IV, respectively) ([40]) using reporter strains expressing yellow fluorescent protein (YFP) upon agr activation. Interference with agr-mediated quorum sensing in S. epidermidis (AH3408, AH3623, and AH3409 for agr-I–III, respectively) ([45]), and S. lugdunensis (AH4031 for agr-I) ([37]) was evaluated using reporter strains expressing superfolder green fluorescent protein (sGFP) upon agr activation. Overnight cultures of the reporter strains were grown in TSB medium containing chloramphenicol (CAM, 10 μg/mL for S. aureus) or erythromycin (ERM, 10 μg/mL of S. epidermidis and S. lugdunensis) and diluted 1:100 in fresh TSB medium containing the same antibiotic. Assays were performed in sterile black 96-well plates with a clear bottom. […] DMSO stock solutions of peptides (1 mM) were diluted in TSB media and added (15 μL) in technical triplicate to the 96-well plate, followed by diluted bacterial overnight cultures (135 μL). Control wells for 100% agr activity were wells replacing the peptide solution with TSB medium (15 μL). […] Wells containing 150 μL TSB medium were used to measure background fluorescence. The 96-well plates were incubated in a humidified incubator at 37°C shaking at 1,000 rpm for 22–24 h and fluorescence (for GFP: excitation 479 nm, emission 520 nm; for YFP: excitation 500 nm, emission 541 nm; automatic gain), and OD600 values were subsequently measured using a plate reader. Background fluorescence was subtracted from all wells and further normalized to the corresponding OD600 value of the respective wells. The average fluorescence of control wells was used as a relative measure for 100% activation of the agr-circuit, and bar graphs were generated using GraphPad Prism 10.4 software. All assays were performed in at least a biological duplicate.
(§2) Overnight cultures of the reporter strains were grown in TSB medium containing chloramphenicol (CAM, 10 μg/mL for S. aureus) or erythromycin (ERM, 10 μg/mL of S. epidermidis and S. lugdunensis) and diluted 1:100 in fresh TSB medium containing the same antibiotic. Assays were performed in sterile black 96-well plates with clear bottoms. Peptide solutions (15 μL) in 1:5 serial dilutions from DMSO stock solutions (1 mM) in TSB medium were added to the 96-well plate in technical duplicate followed by diluted bacterial overnight cultures (135 μL). Control wells for 100% agr activity were wells replacing the peptide solution with TSB medium (15 μL). Wells containing 150 μL TSB medium were used to measure background fluorescence. The 96-well plates were incubated in a humidified incubator at 37°C shaking at 1,000 rpm for 22–24 h and fluorescence (for GFP: excitation 479 nm, emission 520 nm; for YFP: excitation 500 nm, emission 541 nm; automatic gain), and OD600 values were subsequently measured using a plate reader. Background fluorescence was subtracted from all wells and further normalized to the corresponding OD600 value of the respective wells. The average fluorescence of control wells was used as a relative measure for 100% activation of the agr-circuit. Relative agr activity was plotted to obtain IC50 values by non-linear regression with variable slope using GraphPad Prism 10.4 software. All assays were performed in biological triplicate.

S. aureus agr-IV = S. aureus agr-IV (Staphylococcus aureus, UniProt Q309Z2); assay: cell-based; type: cell-based; conditions: fluorescent reporter strain; peptides tested at 1000, 50, 2.5, 0.125 nM or in dose-response
Description: as §1, §2

S. lugdunensis agr-I = S. lugdunensis agr-I (Staphylococcus lugdunensis, UniProt Q8VSW5); assay: cell-based; conditions: fluorescent reporter strain; peptides tested at 1000, 50, 2.5, 0.125 nM or in dose-response
Description: as §1, §2

SA AgrC-II = SA AgrC-II (Staphylococcus aureus, UniProt O33587); conditions: 100 nM cognate AIP; ± SEM; -b = no inhibition recorded at the highest AIP concentration tested; determined previously; ref (1); read-out: IC50, SA AgrC-II, b-lactamase assay; cited from earlier work
SA AgrC-III = SA AgrC-III (Staphylococcus aureus, UniProt O33590); conditions: 100 nM cognate AIP; ± SEM; -b = no inhibition recorded at the highest AIP concentration tested; determined previously; ref (1); read-out: IC50, SA AgrC-III, b-lactamase assay; cited from earlier work
SA AgrC-IV = SA AgrC-IV (Staphylococcus aureus, UniProt Q309Z2); conditions: 100 nM cognate AIP, ± SEM, -b = no inhibition recorded at the highest AIP concentration tested, determined previously, ref (1), cited from earlier work
S. aureus (SA) agr-I = conditions: fluorescence; ref (14); cited from earlier work
[1] = system: S. epidermidis (SE) agr-II; conditions: fluorescence; ref (14); cited from earlier work
S. aureus (SA) agr-III = conditions: fluorescence; ref (14); cited from earlier work
S. aureus (SA) agr-IV = conditions: fluorescence; ref (14); cited from earlier work
S. aureus (SA) agr-II = conditions: fluorescence; ref (14); cited from earlier work
[2] = system: S. epidermidis (SE) agr-I; conditions: fluorescence; ref (14); cited from earlier work

With “S. simulans AIP-II/III Y3A/N3A [compound 38]” the “QS interaction in words (inhibition / activation), S. epidermidis agr-III” value (S. epidermidis agr-III) was “inhibitor”.

In the case of S. simulans AIP-III 8-mer [compound 52], the “QS interaction in words (inhibition / activation), S. aureus agr-IV” value (S. aureus agr-IV) is reported as “increased inhibition”.

In the case of S. simulans AIP-III G7A [compound 49], the “QS interaction in words (inhibition / activation), S. epidermidis agr-III” value (S. epidermidis agr-III) is reported as “loss of activation”.

In the case of S. simulans AIP-III K1A [compound 45], the “QS interaction in words (inhibition / activation), S. epidermidis agr-III” value (S. epidermidis agr-III) is reported as “lost the ability to activate”.

With S. simulans AIP-III P4A [compound 47] the “QS interaction in words (inhibition / activation), S. lugdunensis agr-I” value (S. lugdunensis agr-I) was “increase in inhibition”.

For S. simulans AIP-III W6A [compound 48], the “QS interaction in words (inhibition / activation), S. epidermidis agr-III” value (S. epidermidis agr-III) was “no effect on S. epidermidis agr-III activation”.

For S. simulans AIP-III Y2A [compound 46], the “QS interaction in words (inhibition / activation), S. epidermidis agr-III” value (S. epidermidis agr-III) was “lost the ability to activate”.

In the case of S. vitulinus AIP-I [compound 35], the IC50 (SA AgrC-II) is listed as 800 ± 116 nM, the IC50 (SA AgrC-III) is listed as 690 ± 46 nM and the “IC50, SA AgrC-IV, b-lactamase assay” value (SA AgrC-IV) is listed as “-b”.

In the case of S. warneri AIP-I [compound 16], the IC50 (S. aureus (SA) agr-I) is listed as 10 nM, the IC50 [1] is listed as 19 nM and the IC50 (SA AgrC-II) is listed as 1000 ± 105 nM. For the same substance, the IC50 (S. aureus (SA) agr-III) was 13 nM, the IC50 (SA AgrC-III) was 460 ± 59 nM and the IC50 (SA AgrC-IV; read-out: IC50, SA AgrC-IV, b-lactamase assay) was greater than 1000 nM. For the same substance, the IC50 (S. aureus (SA) agr-IV) was 146 nM, the IC50 (S. aureus (SA) agr-II) was 4 nM and the IC50 [2] was 3 nM.

For S. warneri AIP-II [compound 17], the IC50 (S. aureus (SA) agr-I) is listed as 2 nM, the IC50 [1] is listed as 4 nM and the IC50 (S. aureus (SA) agr-III) is listed as 2 nM. The IC50 (S. aureus (SA) agr-IV) was 2 nM, the IC50 (S. aureus (SA) agr-II) was 30 nM and the IC50 [2] was 12 nM.
